Test results from patent publication US20130244875A1, “METHODS AND COMPOSITIONS FOR IMPROVING PLANT HEALTH” (priority 2006, published 2013).
Several values for one entry are separate records, joined by “and”; a condition that tells them apart may be missing. Identical values can stand only once.

Assays:
[1] = system: Verticillium (isolate King); assay: Verticillium wilt protection in cotton, isolate King; format: in vivo, Verticillium dahliae; conditions: cotton ST6611, DCSA 1 lb/A, glyphosate 0.75 lb/A, 24 hours before inoculation
Excerpt: (§1) DCSA was unexpectedly found to provide protection to cotton plants against Verticillium dahliae, causal agent of cotton wilt disease (Table 6). Cotton plants of the variety ST6611, BOLLGARD 2, ROUNDUP READY FLEX, were inoculated with a moderate isolate (DPL) or a virulent isolate (King) of Verticillium by a seedling dipping method. Seedlings at the first true leaf stage were taken out from the pots, one inch of roots were cut off, seedlings were dipped in a spore slurry for one minute, and then transplanted back in the pots. These strains were isolated and provided by Dr. Terry Wheeler (Texas A&M University, TX USA). DCSA was applied at the rate of 1 lb/A and glyphosate (ROUNDUP WEATHERMAX, Monsanto Company, St. Louis, Mo.) at the rate of 0.75 lb/A 24 hours before inoculation. Protection against Verticillium was measured on a disease severity scale of 1-9:1 being healthy and 9 being dead because of disease, and also was measured as the number of plants that survived out of 10 inoculated plants.

[2] = system: Verticillium (isolate DPL); assay: Verticillium wilt protection in cotton, isolate DPL; format: in vivo, Verticillium dahliae; conditions: cotton ST6611, DCSA 1 lb/A, glyphosate 0.75 lb/A, 24 hours before inoculation
Excerpt: as §1

[3] = system: soybean plants; assay: AMPA induced yellow flash in soybean; format: in vivo; conditions: 8DAT, scale 1-3, surfactant alone 2.7
Description: Yellow flash is a symptom sometimes observed in glyphosate tolerant soybeans treated with glyphosate due to the formation of AMPA (aminomethyl phosphonic acid). A study was conducted to determine if DCSA treatment would protect soybean plants from AMPA induced yellow flash symptoms. Soybean plants were grown to V1-2 growth stage and divided into 3 treatment groups, 3 pots of plants per treatment. The treatments were 0.5 lb/A DCSA, 1.0 lb/A DCSA or surfactant alone. One day after treatment, all of the plants were sprayed with 1 lb/A of AMPA (Sigma Aldrich, St. Louis, Mo.) in surfactant. […] In an aspect of the present invention, a tolerance to yellow flash is provided due to improved plant health by DCSA applied to a plant in need of yellow flash tolerance or DCSA produced in vivo by the action of DMO on dicamba in transgenic plants comprising a DMO transgene.

[4] = system: soybean plants; assay: Drought tolerance of soybean plants; format: in vivo; conditions: for Root gdwt / Leaf gdwt / Leaf gfwt / Root gfwt: variety 2 under drought stress; for Root gdwt / Leaf gdwt: dry weight; for Root gdwt: surfactant 1.16; for Leaf gdwt: surfactant 2.37; for Leaf gfwt / Root gfwt: fresh weight; for Leaf gfwt: surfactant 8.01; for Root gfwt: surfactant 12.88
Description: Drought tolerance is an important agronomic trait. […] Soybean seeds of two varieties (1 and 2) were planted in soil in 4.5 inch pots, 3 seeds per pot. The seeds were germinated and plants grown to the V1 or V2 growth stage. DCSA was prepared (0.36 grams/60 milliliters in 20 percent acetone with 10 percent surfactant) and the plants sprayed with the DCSA solution at a rate equal to 0.5 pounds/Acre (lb/A) or 1.0 (lb/A) at day 0 or day 3 of the experiment. Water was withheld at day 0. The plants were rated on a scale of 1-4 for drought symptoms; 1—no symptoms; 2—minor symptoms, leaf curling and wilting; 3—substantial symptoms and wilting; 4—dead. The treatments were surfactant only, 0.5 lb/A DCSA, and 1.0 lb/A DCSA. The plants were treated with a surfactant or a DCSA solution, water withheld, and drought symptoms rated 2 days after treatment (2DAT), 3 days after treatment (3DAT), and 3DAT after rehydration (water added to soil saturation and plant recovery from drought symptoms measured). Fresh leaf weight (leaf grams fresh weight, leaf gfwt), fresh root weight (root grams fresh weight, root gfwt), leaf dry weight (leaf grams dry weight, leaf gdwt), and root dry weight (root grams dry weight, root gdwt) were measured.

[5] = system: Meloidogyne incognita; assay: Control of cotton root knot nematode (RKN) by DCSA; format: in vivo
Description: DCSA was unexpectedly found to control RKN gall formation, improve plant height and reduce number of eggs produced by the nematode in cotton plants (ST474) (Table 5). Ten to fourteen days old cotton plants were treated with DCSA at the rate of 1 lb/A, 24 hrs before inoculating them with RKN eggs. […] Plant height, gall rating, and egg counts were measured 45 days after inoculation. The gall rating scale was 0-5 with 0=no visible galling and 5=heavy galling.

[6] = system: wheat seed (spring wheat variety); assay: Wheat seed germination in DCSA solution; format: in vivo; set-up: key: 1—low; 2—moderate; 3—high; 3+—exceptionally high; conditions: 22° C., 2DAT, water 1
Description: Wheat seed (spring wheat variety) was germinated in a solution of 0.1, 1, 10, 100, or 1000 μM DCSA or water at 22° C. and rated 2 DAT for germination using the same rating scale as used for soybean.

[7] = individual cotton (ST474) plants 1-8, DCSA 1 lb/A 24 hrs before RKN eggs, 45 days after inoculation

In the case of `O=C(O)c1c(Cl)ccc(Cl)c1O` [DCSA, 3,6-dichloro salicylic acid], the “Severity rating (1-9)” value ([1]; 1 healthy, 9 dead, inoculated check 9) is reported as 2, the “Plant survival rating (out of 10)” value ([1]; inoculated check 0) is reported as 10 and the “Severity rating (1-9)” value ([2]; 1 healthy, 9 dead, inoculated check 5) is reported as 1. For the same compound, the “Plant survival rating (out of 10)” value ([2]; inoculated check 8) was 10, the Average symptoms ([3]; 0.5 lb/A DCSA one day before 1 lb/A AMPA) was 3 and the Average symptoms ([3]; 1.0 lb/A DCSA one day before 1 lb/A AMPA) was 1.7. For the same compound, the average drought rating ([4]; soybean Variety 1, 0.5 lb/A DCSA, 2DAT, scale 1 no symptoms - 4 dead, surfactant 2) was 2.25, the average drought rating ([4]; soybean Variety 1, 0.5 lb/A DCSA, 3DAT fb rehydration, scale 1-4, surfactant 3.25) was 3.75 and the average drought rating ([4]; soybean Variety 1, 0.5 lb/A DCSA, 3DAT, scale 1-4, surfactant 3.5) was 4. For the same compound, the average drought rating ([4]; soybean Variety 1, 1.0 lb/A DCSA, 2DAT, scale 1-4, surfactant 2) was 1.75, the average drought rating ([4]; soybean Variety 1, 1.0 lb/A DCSA, 3DAT fb rehydration, scale 1-4, surfactant 3.25) was 3.5 and the average drought rating ([4]; soybean Variety 1, 1.0 lb/A DCSA, 3DAT, scale 1-4, surfactant 3.5) was 3.75. For the same compound, the average drought rating ([4]; soybean Variety 2, 0.5 lb/A DCSA, 2DAT, scale 1 no symptoms - 4 dead, surfactant 1.5) was 1, the average drought rating ([4]; soybean Variety 2, 0.5 lb/A DCSA, 3DAT fb rehydration, scale 1-4, surfactant 3) was 2.5 and the average drought rating ([4]; soybean Variety 2, 0.5 lb/A DCSA, 3DAT, scale 1-4, surfactant 3.5) was 2.5. For the same compound, the average drought rating ([4]; soybean Variety 2, 1.0 lb/A DCSA, 2DAT, scale 1-4, surfactant 1.5) was 1.25, the average drought rating ([4]; soybean Variety 2, 1.0 lb/A DCSA, 3DAT fb rehydration, scale 1-4, surfactant 3) was 2.5 and the average drought rating ([4]; soybean Variety 2, 1.0 lb/A DCSA, 3DAT, scale 1-4, surfactant 3.5) was 2.5. The Root gdwt ([4]; 0.5 lb/A DCSA) was 1.25 g, the Leaf gdwt ([4]; 0.5 lb/A DCSA) was 1.43 g and the Leaf gfwt ([4]; 0.5 lb/A DCSA) was 9.45 g. The Root gfwt ([4]; 0.5 lb/A DCSA) was 13.74 g, the Root gdwt ([4]; 1.0 lb/A DCSA) was 1.34 g and the Leaf gdwt ([4]; 1.0 lb/A DCSA) was 2.20 g. For the same compound, the Leaf gfwt ([4]; 1.0 lb/A DCSA) was 13.94 g, the Root gfwt ([4]; 1.0 lb/A DCSA) was 15.40 g and the “Egg Count/pot” value [5, 7] was 8,160 and 9,120 and 5,200 and 3,720 and 3,360 and 3,040 and 1,800 and 2,200. For the same compound, the “Plant Height (cm)” value [5, 7] was 25.4 cm (3×) and 22.2 cm and 17.8 cm and 14.0 cm and 15.9 cm and 12.7 cm, the “RKN Gall Rating (0-5)” value ([5]; individual plants 1-8, 0=no visible galling, 5=heavy galling, 45 days after inoculation) was 0 (4×) and 2 and 1 (3×) and the “RKN Gall Rating (0-5), Mean” value ([5]; mean of 8 plants, RKN alone 2.6) was 0.6. The “Plant Height (cm), Mean” value ([5]; mean of 8 plants, RKN alone 16.9) was 19.8 cm, the germination rating ([6]; 0.1 μM DCSA) was 1 and the germination rating ([6]; 1 μM DCSA) was 1. It also gave a germination rating ([6]; 10 μM DCSA) of 3, a germination rating ([6]; 100 μM DCSA) of 2 and a germination rating ([6]; 1000 μM DCSA) of 3.
